Measurements as given in patent US12252457B2, “Compositions and methods for reducing tactile dysfunction, anxiety, and social impairment” (President and Fellows of Harvard College, priority 2018, dated 2025).
Read-outs that look alike come from different tables or passages of the source.

Experiments:
Transporter, GABA [1] = target: T1, Transporter, GABA (Rattus norvegicus, UniProt P23978); conditions: reference compound, historical value; cited from earlier work
T1 construct: tissue Eurofins Panlabs 226400; host or cells: rat brain membranes (own knowledge of the vendor's assay and of the cited Shank et al. 1990 method)

Transporter, GABA [2] = target: T1, Transporter, GABA; assay: GABA transporter radioligand binding assay (Cat # 226400); conditions: reference compound, batch 424211; read-out: Concurrent IC50
Protocol: The activity of compound Compound 5 was evaluated in Radioligand Binding assays. Methods employed herein have been adapted from the scientific literature to maximize reliability and reproducibility. Reference standards were run as an integral part of each assay to ensure the validity of the results obtained. Where presented, IC50 values were determined by a non-linear, least squares regression analysis using MathIQ™ (ID Business Solutions Ltd., UK). Where inhibition constants (K) are presented, the Ki values were calculated using the equation of Cheng and Prusoff (Cheng, Y., Prusoff, W. H., Biochem. Pharmacol. 22:3099-3108, 1973) using the observed IC50 of the tested compound, the concentration of radioligand employed in the assay, and the historical values for the KD of the ligand (obtained experimentally at Eurofins Panlabs, Inc.). Where presented, the Hill coefficient (nH), defining the slope of the competitive binding curve, was calculated using MathIQ™. […] Where IC50, Ki and/or nH data are presented without Standard Error of the Mean (SEM), data are insufficient to be quantitative.
Biochemical assay results are presented as the percent inhibition of specific binding or activity. All other results are expressed in terms of the quantitation method of that assay. For primary assays, only the lowest concentration with a significant response, judged by the criteria of the assay, is shown in this summary. […] Unless otherwise requested, primary screening in duplicate with quantitative data (e.g., IC50±SEM, Ki ±SEM and nH) are shown where applicable for individual requested assays.
J Neurochem. 54:2007-2015.

[3] = tested on: genetic and environmental mouse models of ASD; assay: Tactile PPI, air puff response and startle amplitude after acute midazolam or isoguvacine in ASD mouse models; format: in vivo; conditions: 2 mg/kg i.p.
Protocol: FIGS. 19A-19N show acute administration of the peripherally-restricted GABAA receptor agonist isoguvacine improves tactile hypersensitivity in five genetic and one environmental model of ASD. […] Two-way ANOVA with post-hoc Sidak's test, *, p<0.05. FIG. 19B: Response to a light air puff stimulus alone in mice following i.p. administration of either saline or 2 mg/kg midazolam treatment. Responses are expressed as percent of startle response to a 125 dB noise. Two-way ANOVA with post-hoc Sidak's test, *, p<0.05. FIG. 19C: Magnitude of startle response to a 125 dB noise in mice following i.p. administration of either saline or 2 mg/kg midazolam treatment. Responses are expressed as percent of startle response to a 125 dB noise. Two-way ANOVA with post-hoc Sidak's test, *, p<0.05. FIG. 19D: Magnitude of startle response to a 125 dB noise in mice following i.p. administration of saline, midazolam (2 mg/kg) or a peripherally-restricted GABAA receptor agonist, isoguvacine (2 mg/kg). Responses are expressed as percent of startle response to a 125 dB noise. Two-way ANOVA with post-hoc Sidak's test, *, p<0.05. FIGS. 19E-19G: Liquid chromatography mass spectrometry (LC-MS) quantified isoguvacine concentrations in cerebrospinal fluid (CSF) (FIG. 19E), blood (FIG. 19F) or liver (FIG. 19G) samples of mice treated with: i.p. saline, i.p. isoguvacine (“Iso.”, 20 mg/kg, samples collected 1, 3 or 24 hours post-injection), intracerebral injection isoguvacine (20 mg/kg, 1 hour post-injection), i.p. diazepam (“DZ”, 20 mg/kg, 1 hour post injection) or intracerebral injection diazepam (20 mg/kg, 1 hour post injection). FIG. 19H: Normalized peak chloride flux through α1β3γ2- and α2β3γ2-containing GABAA receptors in response to isoguvacine application. […] FIGS. 19I-19K: GABAA receptor subunit RNA expression levels across peripheral somatosensory neuron subtypes, for the alpha (FIG. 19I), beta (FIG. 19J), and gamma (FIG. 19K) subunit types. […] Two-way ANOVA with post-hoc Sidak's test, *, p<0.05. FIG. 19M: Response to a light air puff stimulus alone in mice following i.p. administration of either saline or 2 mg/kg isoguvacine treatment. Responses are expressed as percent of startle response to a 125 dB noise. Two-way ANOVA with post-hoc Sidak's test, *, p<0.05. FIG. 19N: Magnitude of startle response to a 125 dB noise in mice following i.p. administration of either saline or 2 mg/kg isoguvacine treatment. Responses are expressed as percent of startle response to a 125 dB noise. Two-way ANOVA with post-hoc Sidak's test, *, p<0.05.
Results of the GABAA receptor restoration experiments raised the possibility that pharmacological treatment with a GABAA receptor agonist may improve tactile reactivity in Mecp2 mutant mice. It was therefore tested whether benzodiazepines, which are positive allosteric modulators (PAMs) of GABAA receptors, would attenuate hairy skin hypersensitivity in Mecp2 mutant mice. Advillin^Cre; Mecp2^f/y mutant mice and their control littermates were administered either vehicle alone or the benzodiazepine midazolam (2 mg/kg, i.p.) in a pseudorandomized manner, and then subjected to tactile PPI. On the following day, treatment regimens were reversed, and tactile PPI was repeated.
While traditional blood-brain barrier (BBB) penetrating benzodiazepines and non-benzodiazepine GABAA receptor PAMs are useful for treating some ASD-related symptoms in patients, including acute anxiety, significant adverse effects including sedation and addictive potential are common (Gudex, 1991). Furthermore, long-term benzodiazepine use is linked to cognitive impairment across multiple domains, including short-term verbal memory and attention (Golombok et al., 1988; Tata et al., 1994), leading to general reluctance within the medical community for prescribing benzodiazepines and other GABAA receptor PAMs to young children (Howes et al., 2018). […]

SMILES | Historical nH (Transporter, GABA [1]) | IC50 (Transporter, GABA [1]) | Ki (Transporter, GABA [1]) | IC50 (Transporter, GABA [2]) | tactile sensitivity (tactile PPI) ([3]; Advillin^Cre, Mecp2^f/y mutants and controls) | reduction in startle amplitude (sedation) ([3]; all mice, 125 dB noise)
O=C(O)C1=CCCN(CCON=C(c2ccccc2)c2ccccc2)C1 [NO-711] | 1.10 | 0.2 µM | 0.2 µM | 0.17 µM |  | 
Cc1ncc2n1-c1ccc(Cl)cc1C(c1ccccc1F)=NC2 [midazolam] |  |  |  |  | significantly attenuated tactile sensitivity | ~50%
